Here are results for five compounds from patent publication US6632602B1, “Plant sugar sensors and uses thereof” (The General Hospital Corporation, priority 1996, dated 2003).

Data set [1] has as its system Arabidopsis seedlings. The experiment in a line: Sugar sensitivity bioassay of light-grown seedlings on 6% glucose or 0.8 mM 2-dGlc plates. The class given is in vivo. The conditions noted are these: control plants, constant light; 6% glucose or low concentration (0.8 mM) 2-dGlc. An excerpt: To test the hypothesis that AtHXKs act as sugar sensors in intact plants, transgenic plant models were established by introducing sense and antisense genes to alter AtHXK levels. Wild-type (Bensheim) Arabidopsis plants were transformed with binary vectors carrying gene fusions with the CaMV35S promoter and sense AtHXK1 (sense-AtHXK1), sense AtHXK2 (sense-AtHXK2), antisense AtHXK1 (anti-AtHXK1), or antisense AtHXK2 (anti-AtHXK2) using a standard Agrobacterium-mediated root transformation protocol (Czako et al., Mol. Gen. Genet. 235, 33 (1992)). The presence of a transgene was determined by NPTII expression and resultant kanamycin resistance, and by DNA blot analysis. Several transgenic lines of the T3 generation homozygous for the sense or antisense transgenes were selected for further analyses.
Sugar sensitivity of transgenic plants was examined by performing bioassays using 6% glucose or 0.8 mM 2-deoxyglucose (2-dGlc), a nonmetabolizable glucose analog. […]
The scored phenotypes shown in Table 1 were determined based on the examination of light-grown, 7-day-old seedlings which were germinated on 1/2 MS plates containing either 6% glucose or 0.8 mM of 2-dGlc. Sugar insensitive (Ins), hypersensitive (Hyp), and ambiguous (A) phenotypes were scored and tabulated.

The subject of data set [2] is Arabidopsis seedlings. In words: Osmotic control experiments on 6% mannitol or 6% 3-MeGlc plates. The conditions noted are these: plated on 6% of the substance. The class given is in vivo. An excerpt: To rule out the possibility that the difference in sugar sensing between transgenic and control plants was due to an osmotic effect, mannitol and 3-O-methylglucose (3-MeGlc) were used in control experiments.

Data set [3] has as its system yeast hxk1/hxk2 double mutant (DBY2219). In words: Functional complementation of yeast hxk1/hxk2 double mutant on fructose. In kind it is cell-based, Saccharomyces cerevisiae. The conditions noted are these: for Complementation of yeast double mutant, growth on fructose as sole carbon source: cDNA transformed into DBY2219. The text has this:
To elucidate the role of HXK as a sugar sensor, the Arabidopsis HXK genes were cloned by functional complementation using a yeast Saccharomyces cerevisiae hxk1/hxk2 double mutant (designated DBY2219), a strain which lacked HXK activity (Ma and Botstein, Mol. Cell. Biol. 6, 4046 (1986)). Using this approach, we identified two cDNAs, designated AtHXK1 (FIG. 1F; SEQ ID NO: 3, GenBank accession no. U28214) and AtHXK2 (FIG. 1G; SEQ ID NO: 4, GenBank accession no. U28215). These cDNAs, which were 2.0 and 1.9 kb in length respectively, were both found reproducibly to complement the yeast double mutant and to allow its growth on a selection plate containing fructose as the sole carbon source. […] In contrast, mutants transformed with the plasmid vector pFL61 alone were incapable of growth on the same selection media (FIG. 1A) (Minet et al., Plant J. 2, 417 (1992)).

Data set [4] has the same test system. In words: Yeast glucose repression assay on 2-dGlc/raffinose plate. In kind it is cell-based, Saccharomyces cerevisiae. The conditions noted are these: 2% raffinose, 2-deoxyglucose (0.02%). An excerpt:
To confirm this hypothesis, we sought to increase the expression of a heterologous HXK that would provide excess catalytic activity for sugar metabolism, but no regulatory function. The yeast HXK2 (YHXK2) has been proposed to have catalytic and regulatory functions, and appeared to be a good candidate for this experiment (Entian, Mol. Gen. Genet. 178, 633 (1980); Entian and Frshlich, J. Bacteriol. 158, 29 (1984); Entian et al., Mol. Cell. Biol. 5, 3035 (1985)). We first determined whether the putative regulatory functions of the YHXK2 and AtHXK were interchangeable by examining the effect of increasing the expression of AtHXK on glucose repression in a yeast hxk1/hxk2 double mutant (DBY2219). The assay was based on the YHXK2-mediated growth inhibition (i.e., glucose repression) of wild-type yeast cells on a 2-dGlc/raffinose plate. The glucose repression assay was performed using a YP plate with 2% raffinose as the carbon source in the presence of 2-deoxyglucose (0.02%) as described by Ma et al. (Mol. Cell. Biol. 9, 5643 (1989)). The glucose analog, 2-dGlc, mimics glucose by inducing strong repression of the invertase gene (SUC2), but is itself unavailable for use as a carbon source.

For `O=CC[C@@H](O)[C@H](O)[C@H](O)CO` [2-dGlc, 2-deoxyglucose], in the data set on Arabidopsis seedlings [1], the “Effect of sugar on control (wild-type) seedling development” value was “greening of cotyledons was found to be inhibited”.

Turning to `CO[C@@H]([C@H](O)[C@H](O)CO)[C@@H](O)C=O` [3-MeGlc, 3-O-methylglucose], the “Difference between control and transgenic plants” value in the data set on Arabidopsis seedlings [2] is listed as “No apparent difference”.

Turning to `OC[C@@H](O)[C@@H](O)[C@H](O)[C@H](O)CO` [mannitol], the “Difference between control and transgenic plants” value with Arabidopsis seedlings [2] is “No apparent difference”.

“AtHXK1: Arabidopsis hexokinase cDNA, SEQ ID NO: 3, GenBank accession no. U28214”: the “Complementation of yeast double mutant, growth on fructose as sole carbon source” value in data set [3] is “complement”. In data set [3] (data not shown), the “Catalytic activity in yeast transformation experiment” value is recorded as “higher catalytic activity than AtHXK2”. For the same compound, in data set [4], the “Glucose repression in hxk1/hxk2 strain” value is listed as “did not restore glucose repression”.

With “AtHXK2: Arabidopsis hexokinase cDNA, SEQ ID NO: 4, GenBank accession no. U28215”, the “Complementation of yeast double mutant, growth on fructose as sole carbon source” value in data set [3] is “complement”. The “Glucose repression in hxk1/hxk2 strain” value in data set [4] is “did not restore glucose repression”.
